Results as given in patent EP3628659A1, “SELENOESTER-CONTAINING COMPOUNDS FOR USE IN THE TREATMENT OF MICROBIAL INFECTIONS OR COLORECTAL CANCER” (Consejo Superior De Investigaciones Científicas, priority 2018, dated 2020).
Where two headings read alike, the source gives them in different places.

Columns and labels:
[1] = system: Colo 320/MDR-LRP multidrug resistant overexpressing ABCB1 (MDR1)-LRP; test: cells; format: cell-based, human; settings: for IC50: Homo sapiens, 24 h, read-out: Colo 320 Cytotoxicity; for SI (MRC-5/Colo320): quotient of IC50 in MRC-5 and IC50 in Colo-320
Method: Cytotoxicity assays in human colonic adenocarcinoma cell lines Colo 205 doxorubicin-sensitive (ATCC-CCL-222) and Colo 320/MDR-LRP multidrug resistant overexpressing ABCB1 (MDR1)-LRP (ATCC-CCL-220.1) were performed following the procedure described by Gajdács et al, 2017, Bioorg Med Chem Lett. 27(4): 797-802. The effects of increasing concentrations of selenium compounds on cell growth were tested in 96-well flat-bottomed microtiter plates. The selectivity of the action towards cancer cells was assessed through the evaluation of cytotoxic activity in a non-tumoral cell line, the MRC-5 human embryonal lung fibroblast cell lines (ATCC CCL-171), as described in Gajdács et al, 2017, Bioorg Med Chem Lett. 27(4): 797-802.
All cell lines were purchased from LGC Promochem, Teddington, UK. The colonic cells were cultured in RPMI 1640 medium supplemented with 10% heat-inactivated fetal bovine serum, 2 mM L-glutamine, 1 mM Na-pyruvate and 100 mM Hepes. The cell lines were incubated at 37°C, in a 5% CO2, 95% air atmosphere. The semi-adherent human colon cancer cells were detached with Trypsin-Versene (EDTA) solution for 5 min at 37°C. Alternatively, MRC-5 cells was cultured in Eagle's Minimal Essential Medium (EMEM, containing 4.5 g/L glucose) supplemented with a non-essential amino acid mixture, a selection of vitamins and 10% heat-inactivated fetal bovine serum. The cell lines were incubated at 37°C, in a 5% CO2, 95% air atmosphere.
The compounds were diluted in a volume of 100 µL of medium. The two-fold serial dilutions of selenocompounds were prepared in 100 µL of RPMI 1640, horizontally. The semi-adherent colonic adenocarcinoma cells were treated with Trypsin-Versene (EDTA) solution. They were adjusted to a density of 2×10^4 cells in 100 µL of RPMI 1640 medium, and were added to each well, with the exception of the medium control wells. The final volume of the wells containing selenocompounds and cells was 200 µL.
The culture plates were incubated at 37°C for 24 h; at the end of the incubation period, 20 µL of MTT (thiazolyl blue tetrazolium bromide, Sigma) solution (from a stock solution of 5 mg/mL) were added to each well. After incubation at 37°C for 4 h, 100 µL of sodium dodecyl sulfate (SDS) (Sigma) solution (10% in 0.01 M HCI) were added to each well and the plates were further incubated at 37°C overnight. Cell growth was determined by measuring the optical density (OD) at 540/630 nm with Multiscan EX ELISA reader (Thermo Labsystems, Cheshire, WA, USA). Inhibition of the cell growth was determined according to the formula below: […] = 100−[(OD sample−OD medium control)/(OD cell control−OD medium control)] × 100 [formula]
Results are expressed in terms of IC50, defined as the inhibitory dose that reduces the growth of the cells exposed to the tested compounds by 50%. Regarding the selectivity, the selectivity indexes (SI) were calculate, being SI the quotient of the IC50 in non-tumoral cells (MRC-5) and the respective cancer cell (Colo-205 or Colo-320). Compound is considered moderately selective when SI < 6 and ≥ 3; and strongly selective when SI ≥ 6.

[2] = system: Staphylococcus aureus 25923 ATCC; test: MIC determination (CLSI), S. aureus 25923 ATCC; format: cell-based; settings: MIC class
Method: (§1) The effects exerted by different concentrations of the compounds on bacterial growth in Staphylococcus aureus 25923 ATCC, Staphylococcus aureus multidrug resistant 272123 clinical isolate (MRSA), Escherichia coli AG100 or Escherichia coli AG100 A were tested in 96-well plates. The MIC of selenocompounds was determined according to Clinical and Laboratory Standard Institute (CLSI) guidelines. The solvent used (DMSO) had no antibacterial effect. Alternatively, the MICs of oxacillin of the compounds in MRSA HEMSA 5 were determined by a broth microdilution method in cation-adjusted Mueller-Hinton Broth (MHB II) according to the recommendations of the CLSI. Results were recorded after a 20- or 24-hour incubation at 37°C.

[3] = system: Staphylococcus aureus multidrug resistant 272123 clinical isolate (MRSA); format: cell-based; settings: MIC class
Method: as §1

Saccharomyces cerevisiae = test: Antifungal activity (optical density), Saccharomyces cerevisiae; format: cell-based
Method: The compounds were tested for their antifungal and nematicidal properties against the fungi Candida albicans and Saccharomyces cerevisiae, and against the nematode Steinernema feltiae.
Fungal cell densities were determined by measuring the optical density (OD) at 570 nm at 0 h (first measurement immediately after incubation), 4 h, and 24 h after incubation at 37 °C; and using a Universal Microplate Reader, EL800, Biotech Instruments, Inc. Highland Park, Winooski, VT, USA. Compounds were dissolved in 1% DMSO and were tested at final concentrations of 50, 100, 150, and 200 µM. Nutrient Sabouraud Dextrose (SD), and Yeast Peptone Dextrose (YPD) were used as media for C. albicans, and S. cerevisiae, respectively. Ketoconazole was used as the positive control for C. albicans and S. cerevisiae. The growth culture with medium for each organism was used as the negative control. The Solvent 1% DMSO stock was used as a solvent control. All experiments were carried out in triplicate and on three different occasions (n = 9).
For the three organisms considered (C. albicans, S. cerevisiae and S. feltiae), the inhibitory concentration 50% (IC50) is defined as the concentration that inhibits the viability of the respective organism to a 50% of the viability determined for the negative control.

[4] = read-out: Antifungal activity Saccharomyces cerevisiae, IC50 class, tested at 50, 100, 150 and 200 µM, OD 570 nm, 37 °C, read-out: Antifungal activity Streptomyces cerevisiae

CC(=O)C[Se]C(=O)c1ccc(C(=O)[Se]CC(C)=O)cc1 [Compound 22, Se,Se-bis-(2-oxopropyl) benzene-1,4-bis-(carboselenoate)]
IC50 [1]: < 1 µM
SI (MRC-5/Colo320) [1]: * (Slightly selective compounds: 1 ≤ SI < 3)
Antibacterial activity Against S. aureus 25923 ATCC [2]: **** (Very potent antibacterial compounds: MIC ≤ 1 µM)
Antibacterial activity Against S. aureus MRSA 272123 [3]: *** (Potent antibacterial compounds: 1 µM < MIC ≤ 10 µM)
IC50 (Saccharomyces cerevisiae; [4]): 50 to 100 µM

N#CC[Se]C(=O)c1cc(C(=O)[Se]CC#N)cc(C(=O)[Se]CC#N)c1 [Compound 20, Se,Se,Se-tris-(cyanomethyl) benzene-1,3,5-tris-(carboxyselenoate)]
IC50 [1]: 1 to 10 µM
SI (MRC-5/Colo320) [1]: *** (Strongly selective compounds: SI ≥ 6)
IC50 (Saccharomyces cerevisiae; [4]): 10 to 50 µM

N#CC[Se]C(=O)c1cccc(C(=O)[Se]CC#N)c1 [Compound 19, Se,Se-bis-(cyanomethyl)benzene-1,3-bis-(carboselenoate)]
IC50 [1]: 1 to 10 µM
SI (MRC-5/Colo320) [1]: *** (Strongly selective compounds: SI ≥ 6)
Antibacterial activity Against S. aureus 25923 ATCC [2]: *** (Potent antibacterial compounds: 1 µM < MIC ≤ 10 µM)
Antibacterial activity Against S. aureus MRSA 272123 [3]: ** (Moderate antibacterial compounds: 10 µM < MIC ≤ 50 µM)
IC50 (Saccharomyces cerevisiae; read-out: Antifungal activity Saccharomyces cerevisiae): 10 to 50 µM

N#CC[Se]C(=O)c1ccc(C(=O)[Se]CC#N)cc1 [Compound 18, Se,Se-bis-(cyanomethyl) benzene-1,4-bis-(carboselenoate)]
IC50 [1]: 1 to 10 µM
SI (MRC-5/Colo320) [1]: *** (Strongly selective compounds: SI ≥ 6)
Antibacterial activity Against S. aureus 25923 ATCC [2]: *** (Potent antibacterial compounds: 1 µM < MIC ≤ 10 µM)
Antibacterial activity Against S. aureus MRSA 272123 [3]: ** (Moderate antibacterial compounds: 10 µM < MIC ≤ 50 µM)
IC50 (Saccharomyces cerevisiae; [4]): > 100 µM

CC(=O)C[Se]C(=O)c1cc(C(=O)[Se]CC(C)=O)cc(C(=O)[Se]CC(C)=O)c1 [Compound 24, Se,Se,Se-tris-(2-oxopropyl) benzene-1,3,5-tris-(carboxyselenoate)]
IC50 [1]: < 1 µM
SI (MRC-5/Colo320) [1]: * (Slightly selective compounds: 1 ≤ SI < 3)
Antibacterial activity Against S. aureus 25923 ATCC [2]: **** (Very potent antibacterial compounds: MIC ≤ 1 µM)
Antibacterial activity Against S. aureus MRSA 272123 [3]: **** (Very potent antibacterial compounds: MIC ≤ 1 µM)
IC50 (Saccharomyces cerevisiae; [4]): > 100 µM

CC(=O)C[Se]C(=O)c1cccc(C(=O)[Se]CC(C)=O)c1 [Compound 23, Se,Se-bis-(2-oxopropyl) benzene-1,3-bis-(carboselenoate)]
IC50 [1]: < 1 µM
SI (MRC-5/Colo320) [1]: * (Slightly selective compounds: 1 ≤ SI < 3)
Antibacterial activity Against S. aureus 25923 ATCC [2]: **** (Very potent antibacterial compounds: MIC ≤ 1 µM)
Antibacterial activity Against S. aureus MRSA 272123 [3]: *** (Potent antibacterial compounds: 1 µM < MIC ≤ 10 µM)
IC50 (Saccharomyces cerevisiae; [4]): > 100 µM
